Tested on: NHBE cells
Assay: Biolog metabolic array: substrate use by NHBE cells with or without CA09 infection
Format: cell-based, human
Conditions: for Substrate use, 590 nm absorbance normalized to zero hour, 0 hr: Biolog PMM2, 0 hr; for Substrate use, 590 nm absorbance normalized to zero hour, 1 hr: Biolog PMM2, 1 hr; for Substrate use, 590 nm absorbance normalized to zero hour, 5 hr: Biolog PMM2, 5 hr; for Substrate use, 590 nm absorbance normalized to zero hour, 7 hr: Biolog PMM2, 7 hr
[1] = Control (uninfected) NHBE cells
[2] = Virus (CA09-infected NHBE cells, MOI 1)
[3] = Virus: CA09-infected NHBE cells, MOI 1, Biolog PMM2
[4] = Virus (CA09-infected, MOI 1) NHBE cells
[5] = Virus (CA09, MOI 1) infected NHBE cells

## OC[C@@H](O)[C@@H](O[C@H]1O[C@H](CO)[C@@H](O)[C@H](O)[C@H]1O)[C@H](O)[C@@H](O)CO [Maltitol]
[1]
  590 nm absorbance normalized to zero hour (substrate use), 0 hr: 1.00
  590 nm absorbance normalized to zero hour (substrate use), 1 hr: 1.76
  590 nm absorbance normalized to zero hour (substrate use), 2 hr: 2.36
  590 nm absorbance normalized to zero hour (substrate use), 3 hr: 2.82
  590 nm absorbance normalized to zero hour (substrate use), 4 hr: 3.07
  590 nm absorbance normalized to zero hour (substrate use), 6 hr: 3.52
  590 nm absorbance normalized to zero hour (substrate use), 8 hr: 4.77
  590 nm absorbance normalized to zero hour (substrate use), 9 hr: 5.77
  590 nm absorbance normalized to zero hour (substrate use), 10 hr: 5.24
  590 nm absorbance normalized to zero hour (substrate use), 11 hr: 5.98
  Substrate use, 590 nm absorbance normalized to zero hour, 0 hr: 1.00
  Substrate use, 590 nm absorbance normalized to zero hour, 1 hr: 1.76
  Substrate use, 590 nm absorbance normalized to zero hour, 5 hr: 3.80
  Substrate use, 590 nm absorbance normalized to zero hour, 7 hr: 4.49
[2]
  590 nm absorbance normalized to zero hour (substrate use), 0 hr: 1.00
  590 nm absorbance normalized to zero hour (substrate use), 1 hr: 1.05
  590 nm absorbance normalized to zero hour (substrate use), 2 hr: 1.03
  590 nm absorbance normalized to zero hour (substrate use), 3 hr: 1.37
  590 nm absorbance normalized to zero hour (substrate use), 4 hr: 0.98
  590 nm absorbance normalized to zero hour (substrate use), 5 hr: 0.88
  590 nm absorbance normalized to zero hour (substrate use), 6 hr: 0.89
  590 nm absorbance normalized to zero hour (substrate use), 7 hr: 0.92
  590 nm absorbance normalized to zero hour (substrate use), 8 hr: 0.96
  590 nm absorbance normalized to zero hour (substrate use), 9 hr: 1.01
  590 nm absorbance normalized to zero hour (substrate use), 10 hr: 1.08
  590 nm absorbance normalized to zero hour (substrate use), 11 hr: 1.16
[3]
  590 nm absorbance normalized to zero hour (substrate use), 0 hr: 1.00
  590 nm absorbance normalized to zero hour (substrate use), 1 hr: 1.05
  590 nm absorbance normalized to zero hour (substrate use), 2 hr: 1.03
  590 nm absorbance normalized to zero hour (substrate use), 3 hr: 1.37
  590 nm absorbance normalized to zero hour (substrate use), 4 hr: 0.98
  590 nm absorbance normalized to zero hour (substrate use), 5 hr: 0.88
  590 nm absorbance normalized to zero hour (substrate use), 6 hr: 0.89
  590 nm absorbance normalized to zero hour (substrate use), 7 hr: 0.92
  590 nm absorbance normalized to zero hour (substrate use), 8 hr: 0.96
  590 nm absorbance normalized to zero hour (substrate use), 9 hr: 1.01
  590 nm absorbance normalized to zero hour (substrate use), 10 hr: 1.08
  590 nm absorbance normalized to zero hour (substrate use), 11 hr: 1.16

## OCC1OC(OC2C(CO)OC(OC3C(CO)OC(O)C(O)C3O)C(O)C2O)C(O)C(O)C1O (centres unmarked) [Malto-triose]
[1]
  590 nm absorbance normalized to zero hour (substrate use), 0 hr: 1.00
  590 nm absorbance normalized to zero hour (substrate use), 1 hr: 2.27
  590 nm absorbance normalized to zero hour (substrate use), 2 hr: 3.36
  590 nm absorbance normalized to zero hour (substrate use), 3 hr: 4.16
  590 nm absorbance normalized to zero hour (substrate use), 4 hr: 4.58
  590 nm absorbance normalized to zero hour (substrate use), 6 hr: 5.62
  590 nm absorbance normalized to zero hour (substrate use), 8 hr: 7.97
  590 nm absorbance normalized to zero hour (substrate use), 9 hr: 7.32
  590 nm absorbance normalized to zero hour (substrate use), 10 hr: 6.88
  590 nm absorbance normalized to zero hour (substrate use), 11 hr: 8.46
  Substrate use, 590 nm absorbance normalized to zero hour, 0 hr: 1.00
  Substrate use, 590 nm absorbance normalized to zero hour, 1 hr: 2.27
  Substrate use, 590 nm absorbance normalized to zero hour, 5 hr: 6.09
  Substrate use, 590 nm absorbance normalized to zero hour, 7 hr: 7.39
[4]
  590 nm absorbance normalized to zero hour (substrate use), 0 hr: 1.00
  590 nm absorbance normalized to zero hour (substrate use), 1 hr: 2.01
  590 nm absorbance normalized to zero hour (substrate use), 2 hr: 3.05
  590 nm absorbance normalized to zero hour (substrate use), 3 hr: 3.70
  590 nm absorbance normalized to zero hour (substrate use), 4 hr: 4.08
  590 nm absorbance normalized to zero hour (substrate use), 5 hr: 5.20
  590 nm absorbance normalized to zero hour (substrate use), 6 hr: 5.81
  590 nm absorbance normalized to zero hour (substrate use), 7 hr: 6.29
  590 nm absorbance normalized to zero hour (substrate use), 8 hr: 6.78
  590 nm absorbance normalized to zero hour (substrate use), 9 hr: 7.44
  590 nm absorbance normalized to zero hour (substrate use), 10 hr: 6.04
  590 nm absorbance normalized to zero hour (substrate use), 11 hr: 6.50
[3]
  590 nm absorbance normalized to zero hour (substrate use), 0 hr: 1.00
  590 nm absorbance normalized to zero hour (substrate use), 1 hr: 2.01
  590 nm absorbance normalized to zero hour (substrate use), 2 hr: 3.05
  590 nm absorbance normalized to zero hour (substrate use), 3 hr: 3.70
  590 nm absorbance normalized to zero hour (substrate use), 4 hr: 4.08
  590 nm absorbance normalized to zero hour (substrate use), 5 hr: 5.20
  590 nm absorbance normalized to zero hour (substrate use), 6 hr: 5.81
  590 nm absorbance normalized to zero hour (substrate use), 7 hr: 6.29
  590 nm absorbance normalized to zero hour (substrate use), 8 hr: 6.78
  590 nm absorbance normalized to zero hour (substrate use), 9 hr: 7.44
  590 nm absorbance normalized to zero hour (substrate use), 10 hr: 6.04
  590 nm absorbance normalized to zero hour (substrate use), 11 hr: 6.50

## OC[C@H]1O[C@H](O[C@H]2[C@H](O)[C@@H](O)[C@H](O)O[C@@H]2CO)[C@H](O)[C@@H](O)[C@@H]1O [Maltose]
[1]
  590 nm absorbance normalized to zero hour (substrate use), 1 hr: 1.07
  590 nm absorbance normalized to zero hour (substrate use), 2 hr: 1.04
  590 nm absorbance normalized to zero hour (substrate use), 3 hr: 1.27
  590 nm absorbance normalized to zero hour (substrate use), 4 hr: 1.22
  590 nm absorbance normalized to zero hour (substrate use), 6 hr: 1.72
  590 nm absorbance normalized to zero hour (substrate use), 8 hr: 1.68
  590 nm absorbance normalized to zero hour (substrate use), 9 hr: 1.97
  590 nm absorbance normalized to zero hour (substrate use), 10 hr: 1.93
  590 nm absorbance normalized to zero hour (substrate use), 11 hr: 2.37
  Substrate use, 590 nm absorbance normalized to zero hour, 1 hr: 1.07
  Substrate use, 590 nm absorbance normalized to zero hour, 5 hr: 1.53
  Substrate use, 590 nm absorbance normalized to zero hour, 7 hr: 1.53
[5]
  Substrate use, 590 nm absorbance normalized to zero hour, 1 hr: 2.29
  Substrate use, 590 nm absorbance normalized to zero hour, 5 hr: 5.22
  Substrate use, 590 nm absorbance normalized to zero hour, 7 hr: 6.41
[4]
  590 nm absorbance normalized to zero hour (substrate use), 1 hr: 2.29
  590 nm absorbance normalized to zero hour (substrate use), 2 hr: 3.23
  590 nm absorbance normalized to zero hour (substrate use), 3 hr: 3.88
  590 nm absorbance normalized to zero hour (substrate use), 4 hr: 4.21
  590 nm absorbance normalized to zero hour (substrate use), 6 hr: 5.86
  590 nm absorbance normalized to zero hour (substrate use), 8 hr: 7.01
  590 nm absorbance normalized to zero hour (substrate use), 9 hr: 8.07
  590 nm absorbance normalized to zero hour (substrate use), 10 hr: 8.77
  590 nm absorbance normalized to zero hour (substrate use), 11 hr: 8.43

## O=C(O)[C@H](O)[C@@H](O)[C@H](O)[C@H](O)CO[C@H]1O[C@H](CO)[C@H](O)[C@H](O)[C@H]1O [Melibionic Acid]
[1]
  590 nm absorbance normalized to zero hour (substrate use), 0 hr: 1.00
  590 nm absorbance normalized to zero hour (substrate use), 1 hr: 0.20
  590 nm absorbance normalized to zero hour (substrate use), 2 hr: 0.76
  590 nm absorbance normalized to zero hour (substrate use), 3 hr: 0.58
  590 nm absorbance normalized to zero hour (substrate use), 4 hr: 0.66
  590 nm absorbance normalized to zero hour (substrate use), 6 hr: 0.40
  590 nm absorbance normalized to zero hour (substrate use), 8 hr: 0.51
  590 nm absorbance normalized to zero hour (substrate use), 9 hr: 0.53
  590 nm absorbance normalized to zero hour (substrate use), 10 hr: 0.57
  590 nm absorbance normalized to zero hour (substrate use), 11 hr: 0.60
  Substrate use, 590 nm absorbance normalized to zero hour, 0 hr: 1.00
  Substrate use, 590 nm absorbance normalized to zero hour, 1 hr: 0.20
  Substrate use, 590 nm absorbance normalized to zero hour, 5 hr: 0.48
  Substrate use, 590 nm absorbance normalized to zero hour, 7 hr: 0.47
[5]
  Substrate use, 590 nm absorbance normalized to zero hour, 0 hr: 1.00
  Substrate use, 590 nm absorbance normalized to zero hour, 1 hr: 3.52
  Substrate use, 590 nm absorbance normalized to zero hour, 5 hr: 3.34
  Substrate use, 590 nm absorbance normalized to zero hour, 7 hr: 3.05
[4]
  590 nm absorbance normalized to zero hour (substrate use), 0 hr: 1.00
  590 nm absorbance normalized to zero hour (substrate use), 1 hr: 3.52
  590 nm absorbance normalized to zero hour (substrate use), 2 hr: 3.58
  590 nm absorbance normalized to zero hour (substrate use), 3 hr: 3.59
  590 nm absorbance normalized to zero hour (substrate use), 4 hr: 3.66
  590 nm absorbance normalized to zero hour (substrate use), 6 hr: 3.22
  590 nm absorbance normalized to zero hour (substrate use), 8 hr: 2.89
  590 nm absorbance normalized to zero hour (substrate use), 9 hr: 2.67
  590 nm absorbance normalized to zero hour (substrate use), 10 hr: 1.66
  590 nm absorbance normalized to zero hour (substrate use), 11 hr: 2.18
